Test results published in patent US20150031102A1, “METHODS AND COMPOSITIONS FOR ENHANCED PRODUCTION OF BUTANOL BY CLOSTRIDIA” (Butrolix LLC, priority 2012, published 2015).
“Also recorded” adds a separate entry of the source. Marks after values point to notes of the source that are not given here.

Tested on: C. acetobutylicum
Test: Time course study of replicate 250 mL batch cultures (growth, butanol, residual glucose, yield, productivity)
Type: cell-based, Clostridium acetobutylicum
Details: for Increased butanol concentration versus untreated: 50 nM BP1106213; for Residual glucose: initial glucose 60 g/L; for Butanol yield from glucose: starting glucose 60 g/L
Protocol: Subsequently, time-course studies were conducted using the optimum peptide treatment level that was determined by the sequential batch transfer experiments. Untreated and peptide-treated cultures were grown in triplicate 250 mL batches that were inoculated with […] of the ninth sequential transfer from 24-well culture plates. The 1/1000 ratio of inoculum to culture volume was the same as that used throughout the prior sequential batch transfer experiments, and the replicate time course batch cultures corresponded to the 10th sequential batch transfer. Samples were recovered from the triplicate control and experimental batches a regular time intervals up to 96 hours of culture. Optical density of the replicates was measured and culture supernatants were recovered following centrifugation and analyzed later for butanol and residual glucose concentrations. The analyses were used to calculate yield and productivity of the cultures.
Clostridium acetobutylicum strain ATCC 824 was used in all experiments and the growth medium used for sequential batch transfer, time course, and continuous culture experiments contained yeast extract, casamino acids, L-cysteine, L-asparagine, phosphate buffer, trace minerals, and 6% glucose. What are believed to be quorum-sensing peptides that were used in the experiments were chemically synthesized peptides SEQ ID NO: 143 (amino acid sequence: SYPGWSW) and SEQ ID NO: 144 (amino acid sequence: ILILISG). Routine growth of the bacteria as well as the sequential batch and time course experiments were conducted in a Form a Scientific Model 1029 anaerobic gas chamber at 32° C. Continuous cultures were performed at 32° C. using duplicate New Brunswick Scientific BioFlo 3000 apparati with a dilution rate of 0.01 volume per hour, 75 rpm agitation, and nitrogen gas sparging. Optical density of culture samples was measured at 600 nm in a Beckman DU 600 series spectrophotometer and glucose was analyzed using a YSI Model 2700 Select Biochemistry Analyzer with internal glucose calibration. Butanol concentrations were determined by measuring experimental and standard samples using a Varian Saturn 3 Gas Chromatograph/Mass Spectrometer and calculating butanol concentrations using standard curves.
(§1) The study was started by inoculating triplicate 250 mL batches of untreated and peptide-treated medium with 250 μL of the corresponding ninth sequential transfer from 24-well culture plates. Therefore, the replicate time course batch cultures corresponded to the 10th sequential batch transfer. Samples were recovered from the triplicate control and experimental batches at regular time intervals up to 96 hours of culture for measurement of optical density at 600 nm and analysis of butanol and residual glucose concentrations.
as §1, with “Like the previous time course experiment, this” for “The”, “As before, samples” for “Therefore, the replicate time course batch cultures corresponded to the 10th sequential batch transfer. Samples”, “density” for “density at 600 nm”

[1] = 50 nM peptide, 0 hours, average ± SD of triplicate, second time course study
[2] = 50 nM peptide, 6 hours, average ± SD of triplicate, second time course study
[3] = 50 nM peptide, 12 hours, average ± SD of triplicate, second time course study
[4] = 50 nM peptide, 15 hours, average ± SD of triplicate, second time course study
[5] = 50 nM peptide, 18 hours, average ± SD of triplicate, second time course study
[6] = 50 nM peptide, 21 hours, average ± SD of triplicate, second time course study
[7] = 50 nM peptide, 24 hours, average ± SD of triplicate, second time course study
[8] = 50 nM peptide, 27 hours, average ± SD of triplicate, second time course study
[9] = 50 nM peptide, 30 hours, average ± SD of triplicate, second time course study
[10] = 50 nM peptide, 33 hours, average ± SD of triplicate, second time course study
[11] = 50 nM peptide, 36 hours, average ± SD of triplicate, second time course study
[12] = 50 nM peptide, 48 hours, average ± SD of triplicate, second time course study
[13] = 50 nM peptide, 72 hours, average ± SD of triplicate, second time course study
[14] = 50 nM peptide, 96 hours, average ± SD of triplicate, second time course study

## ILILISG (Derived from Clostridium acetobutylicum SEQ ID NO: 110) [peptide SEQ ID NO: 144]
72 hours of culture growth
  Increased butanol concentration versus untreated: ≤ 15%
96 hours of culture growth
  Increased butanol concentration versus untreated: ≤ 21%
[1]
  Butanol concentration: 0.23 ± 0.00 g/L
  Residual glucose: 59.1 ± 0.9 g/L
[2]
  Butanol concentration: 0.24 ± 0.00 g/L
  Residual glucose: 59.8 ± 0.9 g/L
[3]
  Butanol concentration: 0.26 ± 0.01^c g/L
  Residual glucose: 60.7 ± 0.8 g/L
[4]
  Butanol concentration: 0.26 ± 0.01^c g/L
  Residual glucose: 58.4 ± 0.5 g/L
[5]
  Butanol concentration: 0.28 ± 0.01^c g/L
  Residual glucose: 57.4 ± 0.7 g/L
[6]
  Butanol concentration: 0.32 ± 0.01 g/L
  Residual glucose: 60.6 ± 0.8 g/L
[7]
  Butanol concentration: 0.52 ± 0.01^c g/L
  Residual glucose: 49.4 ± 0.7 g/L
[8]
  Butanol concentration: 0.64 ± 0.01 g/L
  Residual glucose: 50.4 ± 1.9 g/L
[9]
  Butanol concentration: 0.70 ± 0.04 g/L
  Residual glucose: 49.7 ± 1.9 g/L
[10]
  Butanol concentration: 0.82 ± 0.03 g/L
  Residual glucose: 47.6 ± 1.2 g/L
[11]
  Butanol concentration: 0.82 ± 0.03 g/L
  Residual glucose: 47.4 ± 1.3 g/L
[12]
  Butanol concentration: 1.00 ± 0.03 g/L
  Residual glucose: 44.9 ± 0.5 g/L
[13]
  Butanol concentration: 1.17 ± 0.12^c g/L
  Residual glucose: 44.1 ± 3.1 g/L
[14]
  Butanol concentration: 0.98 ± 0.07 g/L
  Residual glucose: 46.4 ± 0.9^c g/L

## SYPGWSW [peptide SEQ ID NO: 143]
50 nM peptide, 0 hours, average ± SD of triplicate
  Residual glucose: 53.7 ± 0.9 g/L
50 nM peptide, 0 hours
  Butanol yield from glucose: 0.001 g butanol/g glucose
50 nM peptide, 6 hours, average ± SD of triplicate
  Residual glucose: 56.2 ± 0.4 g/L
50 nM peptide, 6 hours
  Butanol yield from glucose: 0.001 g butanol/g glucose
50 nM peptide, 12 hours, average ± SD of triplicate
  Residual glucose: 56.1 ± 0.7 g/L
50 nM peptide, 12 hours
  Butanol yield from glucose: 0.001 g butanol/g glucose
50 nM peptide, 18 hours, average ± SD of triplicate
  Residual glucose: 54.7 ± 0.2^c g/L
50 nM peptide, 18 hours
  Butanol yield from glucose: 0.002 g butanol/g glucose
50 nM peptide, 21 hours, average ± SD of triplicate
  Residual glucose: 52.0 ± 0.3 g/L
50 nM peptide, 21 hours
  Butanol yield from glucose: 0.002 g butanol/g glucose
50 nM peptide, 24 hours, average ± SD of triplicate
  Residual glucose: 49.7 ± 0.5^c g/L
50 nM peptide, 24 hours
  Butanol yield from glucose: 0.003 g butanol/g glucose
50 nM peptide, 27 hours, average ± SD of triplicate
  Residual glucose: 46.4 ± 0.4 g/L
50 nM peptide, 27 hours
  Butanol yield from glucose: 0.007 g butanol/g glucose
50 nM peptide, 30 hours, average ± SD of triplicate
  Residual glucose: 46.6 ± 0.4 g/L
50 nM peptide, 30 hours
  Butanol yield from glucose: 0.011 g butanol/g glucose
50 nM peptide, 33 hours, average ± SD of triplicate
  Residual glucose: 45.9 ± 0.6 g/L
50 nM peptide, 33 hours
  Butanol yield from glucose: 0.032 g butanol/g glucose
50 nM peptide, 36 hours, average ± SD of triplicate
  Residual glucose: 46.2 ± 0.5 g/L
50 nM peptide, 36 hours
  Butanol yield from glucose: 0.032 g butanol/g glucose
50 nM peptide, 48 hours, average ± SD of triplicate
  Residual glucose: 45.7 ± 0.3 g/L
50 nM peptide, 48 hours
  Butanol yield from glucose: 0.033 g butanol/g glucose
50 nM peptide, 72 hours, average ± SD of triplicate
  Residual glucose: 45.8 ± 0.1 g/L
50 nM peptide, 72 hours
  Butanol yield from glucose: 0.028 g butanol/g glucose
50 nM peptide, 96 hours, average ± SD of triplicate
  Residual glucose: 45.8 ± 0.2^c g/L
50 nM peptide, 96 hours
  Butanol yield from glucose: 0.029 g butanol/g glucose
50 nM peptide, sampling interval ending at 6 hours
  Butanol productivity: 0.000 g butanol/L-h
50 nM peptide, sampling interval ending at 12 hours
  Butanol productivity: 0.000 g butanol/L-h
50 nM peptide, sampling interval ending at 18 hours
  Butanol productivity: 0.010 g butanol/L-h
50 nM peptide, sampling interval ending at 21 hours
  Butanol productivity: 0.004 g butanol/L-h
50 nM peptide, sampling interval ending at 24 hours
  Butanol productivity: 0.024 g butanol/L-h
50 nM peptide, sampling interval ending at 27 hours
  Butanol productivity: 0.074 g butanol/L-h
50 nM peptide, sampling interval ending at 30 hours
  Butanol productivity: 0.069 g butanol/L-h
50 nM peptide, sampling interval ending at 33 hours
  Butanol productivity: 0.377 g butanol/L-h
50 nM peptide, sampling interval ending at 36 hours
  Butanol productivity: 0.002 g butanol/L-h
50 nM peptide, sampling interval ending at 48 hours
  Butanol productivity: 0.002 g butanol/L-h
50 nM peptide, sampling interval ending at 72 hours
  Butanol productivity: −0.011 g butanol/L-h
50 nM peptide, sampling interval ending at 96 hours
  Butanol productivity: 0.002 g butanol/L-h
50 nM, 33 hours
  Butanol concentration relative to untreated cultures: more than double
  Yield of butanol relative to untreated cultures: more than double
50 nM, end of the study (96 hours of growth)
  Butanol yield increase compared to untreated culture: 53%
50 nM, peak butanol formation stage (between 24 and 33 hours), listed as BP110517
  Butanol productivity relative to untreated cultures: nearly doubled; also recorded: more than doubled
BP110517, batch cultures (summary of findings)
  Increase in butanol yield: more than 50%
Treated, 50 nM, 0 hours, average and standard deviation of triplicate samples
  Butanol concentration: 0.06 ± 0.00 g/L
Treated, 50 nM, 6 hours, average and standard deviation of triplicate samples
  Butanol concentration: 0.06 ± 0.00 g/L
Treated, 50 nM, 12 hours, average and standard deviation of triplicate samples
  Butanol concentration: 0.06 ± 0.00 g/L
Treated, 50 nM, 18 hours, average and standard deviation of triplicate samples
  Butanol concentration: 0.09 ± 0.00^c g/L
Treated, 50 nM, 21 hours, average and standard deviation of triplicate samples
  Butanol concentration: 0.10 ± 0.00 g/L
Treated, 50 nM, 24 hours, average and standard deviation of triplicate samples
  Butanol concentration: 0.17 ± 0.01^c g/L
Treated, 50 nM, 27 hours, average and standard deviation of triplicate samples
  Butanol concentration: 0.39 ± 0.03^c g/L
Treated, 50 nM, 30 hours, average and standard deviation of triplicate samples
  Butanol concentration: 0.60 ± 0.03^c g/L
Treated, 50 nM, 33 hours, average and standard deviation of triplicate samples
  Butanol concentration: 1.73 ± 0.27^c g/L
Treated, 50 nM, 36 hours, average and standard deviation of triplicate samples
  Butanol concentration: 1.74 ± 0.16 g/L
Treated, 50 nM, 48 hours, average and standard deviation of triplicate samples
  Butanol concentration: 1.76 ± 0.26^c g/L
Treated, 50 nM, 72 hours, average and standard deviation of triplicate samples
  Butanol concentration: 1.48 ± 0.29 g/L
Treated, 50 nM, 96 hours, average and standard deviation of triplicate samples
  Butanol concentration: 1.53 ± 0.29 g/L
